Columns and labels:
[1] = target: T1, PDGFRa (Homo sapiens, UniProt P16234); experiment: Protein binding selectivity by change in fluorescence (fluorescence turn-on on binding)
T1 construct: purchased Carna Biosciences
Procedure: More particularly, to determine whether compound 1 selectively binds to a kinase enzyme, various proteins (including a kinase enzyme) were used to check a change in fluorescence. In this experiment, a buffer (100 mM HEPES buffer, pH 7.4) was used as the solvent, and a kinase commercially available from Carna Biosciences was used as the kinase enzyme. Here, each kinase enzyme was stored at −80° C. together with a solvent (50 mM Tris-HCl, 150 mM NaCl, 0.1% CHAPS, 1 mM DTT, and 10% Glycerol, pH 7.5) kindly provided by the manufacturer. […] A 96-well fluorescence assay plate (commercially available from SPL Life Science) was used as a plate used upon measurement of fluorescence, and a VCITOR 3 multilabel counter (commercially available from Perkin Elmer-Wellesley) was used as a measuring machine. A 355 nm-thick filter was used to produce excitation wavelengths of the measuring machine, and a 535 nm-thick filter was used to produce emission wavelengths of the measuring machine. Stirring was performed at 37° C. for 24 hours at a rotary speed of 170 rpm using an NB-205Q model (commercially available from N-BIOTEK). Compound 1 was dissolved in a DMSO solution (1 mM, 10 mM, 50 mM, 100 mM, and 200 mM) to be used, and DMSO in every tube was adjusted to be substantially the same content (less than 1%) under the finally used solvent conditions. Mg^2+ and ATP were used at a content of 1 mM.
In the graph shown in FIG. 2, the horizontal axis represents kinds of proteins, and the vertical axis represents fluorescence intensities of the proteins. Each experimental value was basically an average value of three experiments conducted through the same course for preparing for experiments, a concentration of compound 1 used was 100 μM, and an amount of each protein was 0.2 μg/mL. The kinds of proteins indicated on the horizontal axis are as follows.
More particularly, Model WUV-L10 commercially available from WiseUV was used as a UV excitation device, and the solvent and experiment conditions used were substantially the same as in Example 3. Here, a fluorescence emission observed in the UV excitation device (UV excitation at 350 nm to 430 nm) was determined by taking an image.
More particularly, compound 1 (100 μM) and the kinase enzyme, Src or PDGFRa, were used at contents of 0.2 μg and 1 μg, respectively, and the solvent and experiment conditions used were substantially the same as in Example 3.
More particularly, the solvent and experiment conditions used were substantially the same as in Example 3. In the graph shown in FIG. 7, A represents a fluorescence intensity when compound 1 (100 μM) is used alone, B represents a fluorescence intensity when Mg (1 mM) is added to compound 1, C represents a fluorescence intensity when ATP (1 mM) is added to compound 1, and D represents a fluorescence intensity when compound 1 is treated with Mg (1 mM) and ATP (1 mM) at the same time.
More particularly, a concentration of the kinase enzyme was set to 0.2 μg/mL, fluorescence intensity according to the concentration of compound 1 was measured in the presence of Mg (1 mM) and ATP (1 mM), and the solvent conditions and other conditions were substantially the same as in Example 3.

[2] = system: mouse cutaneous melanoma cells (B16F10); experiment: Cytotoxicity, cell counting kit-8 (CCK-8); assay type: cell-based; conditions: B16F10, 0 to 200 μM, incubated for an hour
Procedure: The present inventors confirmed the cytotoxicity of compound 1 in mouse cutaneous melanoma cells (B16F10) using a cell counting kit-8 (CCK-8) method (Dojindo laboratories, Kumamoto, Japan).
More particularly, the B16F10 cells were incubated for 24 hours (at 37° C.) at a density of 5000 cells/well in a 96-well plate under a 5% CO2 atmosphere. The cells were treated with an increasing concentration of compound 1 (10 μM, 30 μM, 50 μM, 100 μM, and 200 μM) in a DMSO solvent, and then incubated for an hour. Thereafter, the cells were treated with 10 μL of a CCK-8 solution, and then incubated for 2 hours.

[3] = system: mouse melanoma skin cancer B16F10 tissues; experiment: In vivo two-photon microscopy and OCT imaging of mouse ear transplanted with skin cancer tissues
Procedure: More particularly, a mouse's ear was transplanted with skin cancer tissues (mouse melanoma skin cancer B16F10), and treated with compound 1 to determine that fluorescence was selectively observed in a site of cancer in living mice under a two-photon microscope. 6-month-old, SPF/VAF immunodeficent female nude mice (BALB/c-nude mice, OrientBio corp.) were used as the mice, and the B16F10 cancer cells were prepared in the same manner as in Example 12. Then, the concentrated cancer cells from which a solution was removed using a centrifuge were injected into one ear of each mouse using a syringe. After 4 day, formation of cancer tissues in the mouse's ear was checked, and 10 μL of compound 1 (10 mM) was injected into the one ear of each mouse. […] After 30 minutes, the mice were anesthetized by […], and images were taken of cancer tissues and normal tissues using a two-photon fluorescence microscope. […]
In FIG. 13, each image has a size of 300 μm×300 μm, and a scale bar represents 50 μm. A right bar represents a fluorescence signal intensity. […] The panels a and d show the two-photon fluorescence imaging results from the mice into which nothing is injected, the panels b and e show the two-photon fluorescence imaging results from the mice into which 10 μL of a PBS buffer including no compound 1 is injected, and the panels c and f show the […]

T1 sequence (P16234 24-1089): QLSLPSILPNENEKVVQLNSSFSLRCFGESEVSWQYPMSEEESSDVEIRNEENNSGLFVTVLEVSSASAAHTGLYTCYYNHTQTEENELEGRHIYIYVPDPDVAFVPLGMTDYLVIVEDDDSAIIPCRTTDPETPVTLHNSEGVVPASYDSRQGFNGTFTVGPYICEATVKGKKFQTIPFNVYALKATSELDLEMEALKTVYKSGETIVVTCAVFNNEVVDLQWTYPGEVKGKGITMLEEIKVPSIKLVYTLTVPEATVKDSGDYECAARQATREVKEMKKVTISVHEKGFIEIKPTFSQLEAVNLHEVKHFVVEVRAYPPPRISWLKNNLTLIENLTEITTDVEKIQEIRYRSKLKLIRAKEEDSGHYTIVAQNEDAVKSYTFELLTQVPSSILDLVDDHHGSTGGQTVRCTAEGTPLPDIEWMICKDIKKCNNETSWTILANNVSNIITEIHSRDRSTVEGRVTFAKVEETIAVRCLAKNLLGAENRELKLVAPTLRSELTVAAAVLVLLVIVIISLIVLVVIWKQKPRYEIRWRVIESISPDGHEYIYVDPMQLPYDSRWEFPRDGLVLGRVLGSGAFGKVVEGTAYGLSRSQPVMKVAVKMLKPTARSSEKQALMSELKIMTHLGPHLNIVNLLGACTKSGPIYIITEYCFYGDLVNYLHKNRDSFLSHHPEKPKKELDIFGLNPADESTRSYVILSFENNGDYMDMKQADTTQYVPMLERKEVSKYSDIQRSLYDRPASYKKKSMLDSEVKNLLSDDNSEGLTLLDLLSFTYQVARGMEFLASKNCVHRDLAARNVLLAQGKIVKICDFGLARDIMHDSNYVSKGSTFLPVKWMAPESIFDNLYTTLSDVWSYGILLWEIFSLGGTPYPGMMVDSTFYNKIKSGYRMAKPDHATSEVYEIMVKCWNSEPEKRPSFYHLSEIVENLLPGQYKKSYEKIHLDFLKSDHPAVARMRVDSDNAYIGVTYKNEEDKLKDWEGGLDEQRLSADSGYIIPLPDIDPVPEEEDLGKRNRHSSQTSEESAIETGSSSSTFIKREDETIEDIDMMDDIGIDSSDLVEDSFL

Q: Which “fluorescence under UV excitation (image)” value ([1]; PDGFRa with ATP and Mg, 37° C. 24 hours, UV 350 nm to 430 nm, compared with compound 1 alone) does the source give for `CN(C)c1ccc2cc(C=O)c(O)cc2c1` [compound 1, 6-(dimethylamino)-3-hydroxyl-2-naphthaldehyde] here?
A: strong fluorescence

Q: And the fluorescence intensity ([1]; compound 1 100 μM, protein 0.2 μg/mL, with Mg and ATP (1 mM), 37° C. 24 hours)?
A: highest fluorescence intensity

Q: What about the “fluorescence intensity, effect of cofactors” value ([1]; compound 1 100 μM, case D: Mg (1 mM) and ATP (1 mM) together) of the same compound?
A: highest increase in fluorescence intensity

Q: What about the “fluorescence signal intensity according to concentration of kinase enzyme” value ([1]; compound 1 100 μM, enzyme 0.2 μg and 1 μg) of the same compound?
A: stronger fluorescence signal intensity at higher concentrations

Q: What about the “increase in fluorescence intensity” value ([1]; compound 1 at approximately 50 μM, kinase 0.2 μg/mL, Mg 1 mM, ATP 1 mM) of the same compound?
A: approximately 50%

Q: And the cell viability [2]?
A: more than 90%

Q: And the “two-photon fluorescence in cancer tissues versus normal tissues” value ([3]; nude mice, ear injection of 10 μL of compound 1 (10 mM), imaged after 30 minutes, ex 880 nm)?
A: strong fluorescence was selectively observed in the cancer tissues

Q: And the “3D imaging (two-photon microscopy combined with OCT) fluorescence” value ([3]; same conditions as Example 14, cancer tissues)?
A: fluorescence was strongly emitted from the wide tissues
